Data from ChEMBL document CHEMBL1909046, “DrugMatrix in vitro pharmacology data”.
pIC50: −log10 of the molar value.

Assays:
[1] = DRUGMATRIX: Interleukin IL-1 radioligand binding (ligand: [125I] interleukin 1beta); type: cell membranes, Membrane; settings: nih3t3; Not Active = under 50% inhibition at 10 µM
Leukotriene C4 synthase = target: T1, Leukotriene C4 synthase (Cavia porcellus, UniProt A6XA80); type: tissue-based, Lung;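 note: enzyme inhibition assay of leukotriene C4 synthase, using LTA4 as the substrate; in other assays of this panel Not Active means under 50% inhibition at 10 µM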
T1 sequence (A6XA80 whole entry): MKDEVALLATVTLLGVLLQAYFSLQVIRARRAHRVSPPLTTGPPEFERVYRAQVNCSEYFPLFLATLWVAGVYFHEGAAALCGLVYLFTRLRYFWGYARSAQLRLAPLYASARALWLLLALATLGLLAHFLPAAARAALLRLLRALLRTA

Caspase-1 = target: T2, Caspase-1 (Homo sapiens, UniProt P29466); set-up: species or system Escherichia coli;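 note: Caspase-1 enzyme inhibition assay with a peptide substrate; in other assays of this panel Not Active means under 50% inhibition at 10 µM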
T2 sequence (P29466 whole entry): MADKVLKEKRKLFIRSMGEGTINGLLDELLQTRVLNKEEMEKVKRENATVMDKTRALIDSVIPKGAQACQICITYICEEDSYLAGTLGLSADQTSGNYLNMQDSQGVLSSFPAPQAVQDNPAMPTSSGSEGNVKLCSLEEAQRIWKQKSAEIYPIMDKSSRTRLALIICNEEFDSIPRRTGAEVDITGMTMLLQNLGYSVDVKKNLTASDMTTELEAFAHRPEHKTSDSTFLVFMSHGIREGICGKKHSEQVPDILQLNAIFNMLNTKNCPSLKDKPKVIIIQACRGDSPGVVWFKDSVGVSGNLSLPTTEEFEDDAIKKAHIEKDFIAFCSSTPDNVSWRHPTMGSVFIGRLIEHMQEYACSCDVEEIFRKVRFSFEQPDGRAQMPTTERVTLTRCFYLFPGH

[2] = target: Mitogen-activated protein kinase 3 (Homo sapiens, UniProt P27361); test: DRUGMATRIX: Protein Serine/Threonine Kinase, ERK1 enzyme inhibition (substrate: Myelin Basic Protein); set-up: species or system Escherichia coli; settings: Not Active = under 50% inhibition at 10 µM
Mitogen-activated protein kinase 3, sequence (P27361 whole entry): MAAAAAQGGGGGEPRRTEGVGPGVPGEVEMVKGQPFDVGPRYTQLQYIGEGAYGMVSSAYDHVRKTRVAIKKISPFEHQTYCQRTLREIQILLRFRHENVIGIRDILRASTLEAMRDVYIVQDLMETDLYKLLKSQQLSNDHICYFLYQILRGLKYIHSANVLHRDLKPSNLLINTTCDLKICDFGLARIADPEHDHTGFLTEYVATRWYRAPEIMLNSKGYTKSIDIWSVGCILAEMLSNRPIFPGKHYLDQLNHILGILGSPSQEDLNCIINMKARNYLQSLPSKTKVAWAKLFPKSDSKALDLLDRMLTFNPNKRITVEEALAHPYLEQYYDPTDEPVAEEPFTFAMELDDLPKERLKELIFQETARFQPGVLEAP

[3] = target: Mitogen-activated protein kinase 1 (Homo sapiens, UniProt P28482); test: DRUGMATRIX: Protein Serine/Threonine Kinase, ERK2 enzyme inhibition (substrate: Myelin Basic Protein); set-up: species or system Escherichia coli; settings: Not Active = under 50% inhibition at 10 µM; read-out: IC50
Mitogen-activated protein kinase 1, sequence (P28482 whole entry): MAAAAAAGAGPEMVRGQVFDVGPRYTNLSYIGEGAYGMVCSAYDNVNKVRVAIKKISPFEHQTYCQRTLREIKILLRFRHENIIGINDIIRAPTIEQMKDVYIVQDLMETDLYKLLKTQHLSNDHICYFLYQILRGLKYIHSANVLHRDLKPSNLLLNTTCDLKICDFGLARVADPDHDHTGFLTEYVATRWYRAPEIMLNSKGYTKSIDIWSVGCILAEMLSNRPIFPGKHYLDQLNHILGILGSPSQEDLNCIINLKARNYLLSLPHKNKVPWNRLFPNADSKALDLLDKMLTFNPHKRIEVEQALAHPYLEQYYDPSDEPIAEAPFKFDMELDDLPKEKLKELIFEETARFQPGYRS

[4] = target: Epidermal growth factor receptor (Homo sapiens, UniProt P00533); test: DRUGMATRIX: Protein Tyrosine Kinase, EGF Receptor enzyme inhibition (substrate: Poly(Glu:Tyr)); type: cell-based, Insect cells; settings: insect cells; Not Active = under 50% inhibition at 10 µM; read-out: IC50
[5] = target: T3, 5-hydroxytryptamine receptor 1A (Rattus norvegicus, UniProt P19327); type: cell membranes, CHO-K1, Membrane; settings: cho-k1; note: in other assays of this panel Not Active means under 50% inhibition at 10 µM
T3 sequence (P19327 whole entry): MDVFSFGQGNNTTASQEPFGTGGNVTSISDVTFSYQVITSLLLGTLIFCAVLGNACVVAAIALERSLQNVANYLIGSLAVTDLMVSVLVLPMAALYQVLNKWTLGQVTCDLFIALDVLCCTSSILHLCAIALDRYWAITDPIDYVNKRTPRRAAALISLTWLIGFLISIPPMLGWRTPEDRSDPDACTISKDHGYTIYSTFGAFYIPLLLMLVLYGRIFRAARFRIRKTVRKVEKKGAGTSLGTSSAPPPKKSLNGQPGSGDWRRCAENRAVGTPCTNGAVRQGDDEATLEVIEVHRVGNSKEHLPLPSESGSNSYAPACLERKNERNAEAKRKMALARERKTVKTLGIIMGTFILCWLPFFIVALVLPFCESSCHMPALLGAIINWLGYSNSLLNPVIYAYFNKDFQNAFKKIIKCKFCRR

LIPOPOLYSACCHARIDE E. COLI O55:B5
6.73: pIC50 [4]
6.49: pIC50 [3]
Not Active: IC50 [1] | Ki [1] | IC50 (Leukotriene C4 synthase) | Ki (Leukotriene C4 synthase) | IC50 (Caspase-1) | Ki (Caspase-1) | IC50 [2] | Ki [2] | IC50 [5] | Ki [5]
